What is called IC50 is the concentration that gives 50% inhibition.

This experiment has as its target T1, P2X purinoceptor 4 (Rattus norvegicus, UniProt P51577).
T1 sequence (P51577 whole entry): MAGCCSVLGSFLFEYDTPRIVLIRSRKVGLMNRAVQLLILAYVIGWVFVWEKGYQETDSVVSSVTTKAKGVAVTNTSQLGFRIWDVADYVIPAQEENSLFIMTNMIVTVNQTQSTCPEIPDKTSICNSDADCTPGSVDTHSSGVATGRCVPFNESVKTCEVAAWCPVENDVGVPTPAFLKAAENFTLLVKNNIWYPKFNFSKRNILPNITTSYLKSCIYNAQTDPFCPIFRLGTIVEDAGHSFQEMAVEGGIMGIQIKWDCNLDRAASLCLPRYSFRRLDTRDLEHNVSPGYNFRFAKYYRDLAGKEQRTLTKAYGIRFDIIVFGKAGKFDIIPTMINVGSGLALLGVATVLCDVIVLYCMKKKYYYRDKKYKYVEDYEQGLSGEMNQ
The experiment in a line: Antagonist activity at rat P2X4R expressed in HEK293 cells preincubated for 2 mins followed by ATP addition and measured after 4 mins. The class given is cell-based.

With `O=C1CN=C(c2cccc(Br)c2)c2oc3ccccc3c2N1`, the half-inhibitory concentration (IC50) is 750 nM. This lies in the sub-micromolar range.

The values are drawn from ChEMBL document CHEMBL5104186, “Structure-Activity Relationship and Neuroprotective Activity of 1,5-Dihydro-2H-naphtho[1,2-b][1,4]diazepine-2,4(3H)-diones as P2X4 Receptor Antagonists” (J Med Chem, 2022).
